Experimental data taken from PubChem BioAssay (NCI).
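Each compound was tested at five concentrations against cells in 96-well plates for 48 hours. Definition used: TGI = concentration required for complete inhibition of growth.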

Experiments:
Test in all cases: NCI tumour cell line growth inhibition, 48 h
786-0 renal = test system: 786-0 renal
A549 NSCLC = test system: A549 NSCLC
ACHN renal = test system: ACHN renal
CAKI-1 renal = test system: CAKI-1 renal
CCRF-CEM leukemia = test system: CCRF-CEM leukemia
COLO 205 colon = test system: COLO 205 colon
DLD-1 colon = test system: DLD-1 colon
DMS 114 small cell lung = test system: DMS 114 small cell lung
DMS 273 small cell lung = test system: DMS 273 small cell lung
EKVX NSCLC = test system: EKVX NSCLC
HCC-2998 colon = test system: HCC-2998 colon
HCT-116 colon = test system: HCT-116 colon
HCT-15 colon = test system: HCT-15 colon
HL-60(TB) leukemia = test system: HL-60(TB) leukemia
IGROV1 ovarian = test system: IGROV1 ovarian
K-562 leukemia = test system: K-562 leukemia
KM12 colon = test system: KM12 colon
KM20L2 colon = test system: KM20L2 colon
LOX IMVI melanoma = test system: LOX IMVI melanoma
M19-MEL melanoma = test system: M19-MEL melanoma
MALME-3M melanoma = test system: MALME-3M melanoma
MOLT-4 leukemia = test system: MOLT-4 leukemia
NCI-H226 lung = test system: NCI-H226 lung
NCI-H23 lung = test system: NCI-H23 lung
NCI-H522 lung = test system: NCI-H522 lung
OVCAR-4 ovarian = test system: OVCAR-4 ovarian
OVCAR-8 ovarian = test system: OVCAR-8 ovarian
RPMI-8226 leukemia = test system: RPMI-8226 leukemia
RXF-631 renal = test system: RXF-631 renal
SF-295 CNS = test system: SF-295 CNS
SF-539 CNS = test system: SF-539 CNS
SK-MEL-2 melanoma = test system: SK-MEL-2 melanoma
SK-MEL-5 melanoma = test system: SK-MEL-5 melanoma
SN12C renal = test system: SN12C renal
SNB-19 CNS = test system: SNB-19 CNS
SNB-75 CNS = test system: SNB-75 CNS
SR leukemia = test system: SR leukemia
SW-620 colon = test system: SW-620 colon
TK-10 renal = test system: TK-10 renal
U251 CNS = test system: U251 CNS
UACC-257 melanoma = test system: UACC-257 melanoma
UACC-62 melanoma = test system: UACC-62 melanoma
UO-31 renal = test system: UO-31 renal
XF 498 CNS = test system: XF 498 CNS
A498 renal = test system: A498 renal
HOP-18 NSCLC = test system: HOP-18 NSCLC
HOP-92 NSCLC = test system: HOP-92 NSCLC
HT29 colon = test system: HT29 colon
LXFL 529 NSCLC = test system: LXFL 529 NSCLC
M14 melanoma = test system: M14 melanoma
NCI-H460 lung = test system: NCI-H460 lung
OVCAR-3 ovarian = test system: OVCAR-3 ovarian
RXF 393 renal = test system: RXF 393 renal
SK-MEL-28 melanoma = test system: SK-MEL-28 melanoma
SK-OV-3 ovarian = test system: SK-OV-3 ovarian
SNB-78 CNS = test system: SNB-78 CNS
HOP-62 NSCLC = test system: HOP-62 NSCLC
OVCAR-5 ovarian = test system: OVCAR-5 ovarian
SF-268 CNS = test system: SF-268 CNS

## CCN(/N=C1\CC2C=CCN(C2)C(=O)Cc2c1[nH]c1ccccc21)S(=O)(=O)c1ccc(C)cc1 (stereo unspecified)
786-0 renal
  TGI: > 100 µM
A549 NSCLC
  TGI: > 100 µM
ACHN renal
  TGI: > 100 µM
CAKI-1 renal
  TGI: > 100 µM
CCRF-CEM leukemia
  TGI: > 100 µM
COLO 205 colon
  TGI: > 100 µM
DLD-1 colon
  TGI: > 100 µM
DMS 114 small cell lung
  TGI: > 100 µM
DMS 273 small cell lung
  TGI: > 100 µM
EKVX NSCLC
  TGI: > 100 µM
HCC-2998 colon
  TGI: > 100 µM
HCT-116 colon
  TGI: > 100 µM
HCT-15 colon
  TGI: > 100 µM
HL-60(TB) leukemia
  TGI: > 100 µM
IGROV1 ovarian
  TGI: > 100 µM
K-562 leukemia
  TGI: > 100 µM
KM12 colon
  TGI: > 100 µM
KM20L2 colon
  TGI: > 100 µM
LOX IMVI melanoma
  TGI: > 100 µM
M19-MEL melanoma
  TGI: > 100 µM
MALME-3M melanoma
  TGI: > 100 µM
MOLT-4 leukemia
  TGI: > 100 µM
NCI-H226 lung
  TGI: 38.6 µM
NCI-H23 lung
  TGI: > 100 µM
NCI-H522 lung
  TGI: > 100 µM
OVCAR-4 ovarian
  TGI: > 100 µM
OVCAR-8 ovarian
  TGI: > 100 µM
RPMI-8226 leukemia
  TGI: > 100 µM
RXF-631 renal
  TGI: > 100 µM
SF-295 CNS
  TGI: > 100 µM
SF-539 CNS
  TGI: > 100 µM
SK-MEL-2 melanoma
  TGI: > 100 µM
SK-MEL-5 melanoma
  TGI: > 100 µM
SN12C renal
  TGI: > 100 µM
SNB-19 CNS
  TGI: > 100 µM
SNB-75 CNS
  TGI: > 100 µM
SR leukemia
  TGI: > 100 µM
SW-620 colon
  TGI: > 100 µM
TK-10 renal
  TGI: > 100 µM
U251 CNS
  TGI: > 100 µM
UACC-257 melanoma
  TGI: > 100 µM
UACC-62 melanoma
  TGI: > 100 µM
UO-31 renal
  TGI: > 100 µM
XF 498 CNS
  TGI: > 100 µM

## O=C1CCC2COc3ccc(O)c1c32 (stereo unspecified)
A498 renal
  TGI: > 100 µM
A549 NSCLC
  TGI: > 100 µM
ACHN renal
  TGI: > 100 µM
CAKI-1 renal
  TGI: > 100 µM
CCRF-CEM leukemia
  TGI: > 100 µM
COLO 205 colon
  TGI: > 100 µM
DMS 114 small cell lung
  TGI: > 100 µM
DMS 273 small cell lung
  TGI: > 100 µM
EKVX NSCLC
  TGI: > 100 µM
HCT-116 colon
  TGI: > 100 µM
HCT-15 colon
  TGI: > 100 µM
HL-60(TB) leukemia
  TGI: > 100 µM
HOP-18 NSCLC
  TGI: > 100 µM
HOP-92 NSCLC
  TGI: > 100 µM
HT29 colon
  TGI: > 100 µM
IGROV1 ovarian
  TGI: > 100 µM
K-562 leukemia
  TGI: > 100 µM
KM20L2 colon
  TGI: > 100 µM
LOX IMVI melanoma
  TGI: > 100 µM
LXFL 529 NSCLC
  TGI: > 100 µM
M14 melanoma
  TGI: > 100 µM
M19-MEL melanoma
  TGI: > 100 µM
MOLT-4 leukemia
  TGI: > 100 µM
NCI-H23 lung
  TGI: > 100 µM
NCI-H460 lung
  TGI: > 100 µM
OVCAR-3 ovarian
  TGI: > 100 µM
OVCAR-4 ovarian
  TGI: > 100 µM
OVCAR-8 ovarian
  TGI: > 100 µM
RPMI-8226 leukemia
  TGI: > 100 µM
RXF 393 renal
  TGI: > 100 µM
SF-295 CNS
  TGI: > 100 µM
SF-539 CNS
  TGI: > 100 µM
SK-MEL-28 melanoma
  TGI: > 100 µM
SK-MEL-5 melanoma
  TGI: > 100 µM
SK-OV-3 ovarian
  TGI: > 100 µM
SN12C renal
  TGI: > 100 µM
SNB-19 CNS
  TGI: 95.9 µM
SNB-75 CNS
  TGI: > 100 µM
SNB-78 CNS
  TGI: > 100 µM
SW-620 colon
  TGI: > 100 µM
TK-10 renal
  TGI: > 100 µM
U251 CNS
  TGI: > 100 µM
UACC-257 melanoma
  TGI: > 100 µM
UACC-62 melanoma
  TGI: > 100 µM
XF 498 CNS
  TGI: > 100 µM

## CCN(CC)C(=O)CC12CCCCC1=Nc1ccccc12 (stereo unspecified)
786-0 renal
  TGI: > 100 µM
A498 renal
  TGI: > 100 µM
A549 NSCLC
  TGI: > 100 µM
ACHN renal
  TGI: > 100 µM
CAKI-1 renal
  TGI: > 100 µM
CCRF-CEM leukemia
  TGI: > 100 µM
COLO 205 colon
  TGI: > 100 µM
DLD-1 colon
  TGI: > 100 µM
DMS 273 small cell lung
  TGI: > 100 µM
EKVX NSCLC
  TGI: > 100 µM
HCC-2998 colon
  TGI: > 100 µM
HCT-116 colon
  TGI: > 100 µM
HCT-15 colon
  TGI: > 100 µM
HL-60(TB) leukemia
  TGI: > 100 µM
HOP-18 NSCLC
  TGI: > 100 µM
HOP-62 NSCLC
  TGI: > 100 µM
HOP-92 NSCLC
  TGI: > 100 µM
HT29 colon
  TGI: > 100 µM
IGROV1 ovarian
  TGI: > 100 µM
K-562 leukemia
  TGI: > 100 µM
KM12 colon
  TGI: > 100 µM
KM20L2 colon
  TGI: > 100 µM
LOX IMVI melanoma
  TGI: > 100 µM
LXFL 529 NSCLC
  TGI: > 100 µM
M14 melanoma
  TGI: > 100 µM
M19-MEL melanoma
  TGI: > 100 µM
MALME-3M melanoma
  TGI: > 100 µM
MOLT-4 leukemia
  TGI: > 100 µM
NCI-H23 lung
  TGI: > 100 µM
NCI-H460 lung
  TGI: > 100 µM
OVCAR-3 ovarian
  TGI: > 100 µM
OVCAR-4 ovarian
  TGI: > 100 µM
OVCAR-5 ovarian
  TGI: > 100 µM
OVCAR-8 ovarian
  TGI: > 100 µM
RPMI-8226 leukemia
  TGI: > 100 µM
RXF-631 renal
  TGI: > 100 µM
SF-295 CNS
  TGI: > 100 µM
SF-539 CNS
  TGI: > 100 µM
SK-MEL-2 melanoma
  TGI: > 100 µM
SK-MEL-28 melanoma
  TGI: > 100 µM
SK-MEL-5 melanoma
  TGI: > 100 µM
SK-OV-3 ovarian
  TGI: > 100 µM
SNB-75 CNS
  TGI: > 100 µM
SNB-78 CNS
  TGI: > 100 µM
SW-620 colon
  TGI: > 100 µM
TK-10 renal
  TGI: > 100 µM
U251 CNS
  TGI: > 100 µM
UACC-257 melanoma
  TGI: > 100 µM
UACC-62 melanoma
  TGI: > 100 µM
XF 498 CNS
  TGI: > 100 µM

## CC(N)C(C)c1ccccc1 (stereo unspecified)
786-0 renal
  TGI: > 100 µM
A498 renal
  TGI: > 100 µM
A549 NSCLC
  TGI: > 100 µM
ACHN renal
  TGI: > 100 µM
CAKI-1 renal
  TGI: > 100 µM
CCRF-CEM leukemia
  TGI: > 100 µM
COLO 205 colon
  TGI: > 100 µM
DLD-1 colon
  TGI: > 100 µM
DMS 114 small cell lung
  TGI: > 100 µM
DMS 273 small cell lung
  TGI: > 100 µM
EKVX NSCLC
  TGI: > 100 µM
HCC-2998 colon
  TGI: > 100 µM
HCT-116 colon
  TGI: > 100 µM
HCT-15 colon
  TGI: > 100 µM
HL-60(TB) leukemia
  TGI: > 100 µM
HOP-18 NSCLC
  TGI: > 100 µM
HOP-62 NSCLC
  TGI: > 100 µM
HOP-92 NSCLC
  TGI: > 100 µM
HT29 colon
  TGI: > 100 µM
IGROV1 ovarian
  TGI: > 100 µM
K-562 leukemia
  TGI: > 100 µM
KM12 colon
  TGI: > 100 µM
KM20L2 colon
  TGI: > 100 µM
LOX IMVI melanoma
  TGI: > 100 µM
LXFL 529 NSCLC
  TGI: > 100 µM
M14 melanoma
  TGI: > 100 µM
MALME-3M melanoma
  TGI: > 100 µM
MOLT-4 leukemia
  TGI: > 100 µM
NCI-H226 lung
  TGI: > 100 µM
NCI-H23 lung
  TGI: > 100 µM
NCI-H460 lung
  TGI: > 100 µM
NCI-H522 lung
  TGI: > 100 µM
OVCAR-3 ovarian
  TGI: > 100 µM
OVCAR-4 ovarian
  TGI: > 100 µM
OVCAR-5 ovarian
  TGI: > 100 µM
OVCAR-8 ovarian
  TGI: > 100 µM
RPMI-8226 leukemia
  TGI: > 100 µM
RXF 393 renal
  TGI: > 100 µM
SF-268 CNS
  TGI: > 100 µM
SF-295 CNS
  TGI: > 100 µM
SF-539 CNS
  TGI: > 100 µM
SK-MEL-2 melanoma
  TGI: > 100 µM
SK-MEL-28 melanoma
  TGI: > 100 µM
SK-MEL-5 melanoma
  TGI: > 100 µM
SK-OV-3 ovarian
  TGI: > 100 µM
SN12C renal
  TGI: > 100 µM
SNB-19 CNS
  TGI: > 100 µM
SNB-75 CNS
  TGI: > 100 µM
SNB-78 CNS
  TGI: > 100 µM
SR leukemia
  TGI: > 100 µM
SW-620 colon
  TGI: > 100 µM
TK-10 renal
  TGI: > 100 µM
U251 CNS
  TGI: > 100 µM
UACC-257 melanoma
  TGI: > 100 µM
UACC-62 melanoma
  TGI: > 100 µM
UO-31 renal
  TGI: > 100 µM
XF 498 CNS
  TGI: > 100 µM
